Results taken from patent publication US20170319483A1, “METHOD FOR PRODUCING POROUS PARTICLE” (National Institute for Materials Science, priority 2014, published 2017).

Experiment: Theophylline release experiment in pH 7 phosphate buffer
Type: physicochemical
Conditions: FIG. 24
Procedure: First, the porous particles containing theophylline of Application Examples of 4-1 to 4-4 were dispersed in a phosphate buffer solution of pH 7 at 200 mg/100 mL.
Next, the solution was collected over time, filtered by a filter, and thereafter analyzed by high-performance liquid chromatography, and the concentration of theophylline in the solution was measured.

SMILES: Cn1c(=O)c2[nH]cnc2n(C)c1=O [theophylline alone, theophylline]
- Theophylline release / dissolution behaviour: whole amount was dissolved instantaneously
